Consider one molecule from ChEMBL document CHEMBL1152164, “The first X-ray crystal structure of the glucocorticoid receptor bound to a non-steroidal agonist” (Bioorg Med Chem Lett, 2008).

The target in test [1] is T1, Glucocorticoid receptor (Homo sapiens, UniProt P04150).
T1 sequence (P04150 whole entry): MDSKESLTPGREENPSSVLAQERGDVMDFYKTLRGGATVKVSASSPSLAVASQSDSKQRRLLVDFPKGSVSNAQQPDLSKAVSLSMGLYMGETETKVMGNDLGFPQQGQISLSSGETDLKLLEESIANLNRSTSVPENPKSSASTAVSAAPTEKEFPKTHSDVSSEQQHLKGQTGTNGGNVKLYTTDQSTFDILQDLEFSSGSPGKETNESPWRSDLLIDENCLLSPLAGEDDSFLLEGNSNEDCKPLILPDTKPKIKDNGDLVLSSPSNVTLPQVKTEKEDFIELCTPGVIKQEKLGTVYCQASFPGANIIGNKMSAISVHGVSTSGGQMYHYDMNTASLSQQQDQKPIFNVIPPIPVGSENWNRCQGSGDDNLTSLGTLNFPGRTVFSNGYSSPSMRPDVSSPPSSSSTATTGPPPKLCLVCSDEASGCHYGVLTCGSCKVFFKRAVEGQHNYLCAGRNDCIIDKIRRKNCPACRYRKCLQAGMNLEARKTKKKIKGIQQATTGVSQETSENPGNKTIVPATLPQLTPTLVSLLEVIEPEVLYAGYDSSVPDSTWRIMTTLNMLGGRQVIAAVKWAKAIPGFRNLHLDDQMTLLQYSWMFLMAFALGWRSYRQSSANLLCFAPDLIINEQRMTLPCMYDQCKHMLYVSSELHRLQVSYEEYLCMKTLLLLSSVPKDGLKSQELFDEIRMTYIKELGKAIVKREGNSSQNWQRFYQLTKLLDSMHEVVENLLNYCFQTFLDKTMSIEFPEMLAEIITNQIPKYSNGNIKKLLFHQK
Briefly: Agonist activity at glucocorticoid receptor by MMTV transactivation assay. Type of test: functional.

Test [2] has as its target T2, Mineralocorticoid receptor (Homo sapiens, UniProt P08235).
T2 sequence (P08235 whole entry): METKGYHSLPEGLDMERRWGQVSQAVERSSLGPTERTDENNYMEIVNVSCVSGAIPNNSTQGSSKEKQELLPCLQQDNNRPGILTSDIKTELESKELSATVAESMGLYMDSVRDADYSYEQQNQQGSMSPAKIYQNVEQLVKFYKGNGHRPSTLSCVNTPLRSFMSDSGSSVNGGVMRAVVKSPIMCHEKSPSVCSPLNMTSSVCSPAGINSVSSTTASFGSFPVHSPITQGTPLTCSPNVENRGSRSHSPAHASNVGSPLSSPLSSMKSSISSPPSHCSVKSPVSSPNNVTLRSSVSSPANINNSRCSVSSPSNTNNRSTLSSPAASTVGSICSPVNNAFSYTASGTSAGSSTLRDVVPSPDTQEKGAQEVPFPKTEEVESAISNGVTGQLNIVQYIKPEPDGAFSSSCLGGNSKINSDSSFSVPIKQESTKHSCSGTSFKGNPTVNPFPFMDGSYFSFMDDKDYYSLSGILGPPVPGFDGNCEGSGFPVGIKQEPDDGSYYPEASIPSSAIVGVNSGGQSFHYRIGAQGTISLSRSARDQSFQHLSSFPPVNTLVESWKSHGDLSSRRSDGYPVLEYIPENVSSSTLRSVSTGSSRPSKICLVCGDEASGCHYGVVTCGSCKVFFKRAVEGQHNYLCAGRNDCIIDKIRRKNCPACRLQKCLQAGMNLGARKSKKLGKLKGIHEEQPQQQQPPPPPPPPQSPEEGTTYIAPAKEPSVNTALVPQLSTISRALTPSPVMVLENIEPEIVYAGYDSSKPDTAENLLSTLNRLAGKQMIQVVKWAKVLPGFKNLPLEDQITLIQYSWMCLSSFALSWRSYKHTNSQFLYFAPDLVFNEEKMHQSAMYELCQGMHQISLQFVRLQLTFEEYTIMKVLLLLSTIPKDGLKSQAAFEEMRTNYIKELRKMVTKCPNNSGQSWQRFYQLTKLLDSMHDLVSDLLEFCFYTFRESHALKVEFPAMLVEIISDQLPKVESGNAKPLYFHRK
Briefly: Binding affinity to mineralocorticoid receptor.

The target of test [3] is T1, Glucocorticoid receptor. Nature of the test: Binding affinity to glucocorticoid receptor.
The target in a further test is T3, Progesterone receptor (Homo sapiens, UniProt P06401).
T3 sequence (P06401 whole entry): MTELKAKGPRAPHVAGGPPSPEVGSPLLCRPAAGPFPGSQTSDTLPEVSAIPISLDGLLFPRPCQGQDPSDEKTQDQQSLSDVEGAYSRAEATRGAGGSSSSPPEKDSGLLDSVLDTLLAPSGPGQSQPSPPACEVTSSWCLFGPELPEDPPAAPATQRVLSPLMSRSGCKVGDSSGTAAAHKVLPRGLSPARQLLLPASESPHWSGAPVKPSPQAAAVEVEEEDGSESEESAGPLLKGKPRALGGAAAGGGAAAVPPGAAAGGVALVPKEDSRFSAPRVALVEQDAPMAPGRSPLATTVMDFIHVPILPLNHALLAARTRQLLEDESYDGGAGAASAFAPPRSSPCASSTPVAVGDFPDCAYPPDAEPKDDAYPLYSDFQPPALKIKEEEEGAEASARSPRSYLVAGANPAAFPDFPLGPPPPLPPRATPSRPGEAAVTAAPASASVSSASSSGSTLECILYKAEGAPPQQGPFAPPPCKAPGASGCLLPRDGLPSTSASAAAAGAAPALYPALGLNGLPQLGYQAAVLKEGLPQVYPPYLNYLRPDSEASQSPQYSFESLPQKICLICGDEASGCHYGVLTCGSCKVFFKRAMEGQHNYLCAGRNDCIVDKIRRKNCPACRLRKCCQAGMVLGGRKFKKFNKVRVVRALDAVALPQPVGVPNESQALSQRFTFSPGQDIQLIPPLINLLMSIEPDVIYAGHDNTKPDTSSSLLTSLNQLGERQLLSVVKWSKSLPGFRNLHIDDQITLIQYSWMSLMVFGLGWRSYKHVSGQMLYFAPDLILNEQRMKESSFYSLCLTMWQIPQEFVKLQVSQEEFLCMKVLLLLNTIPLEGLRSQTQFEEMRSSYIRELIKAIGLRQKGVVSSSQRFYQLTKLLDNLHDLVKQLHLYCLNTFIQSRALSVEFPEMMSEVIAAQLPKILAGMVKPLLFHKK
Briefly: Binding affinity to progesterone receptor.

The target in the next test is T4, Androgen receptor (Homo sapiens, UniProt P10275).
T4 sequence (P10275 whole entry): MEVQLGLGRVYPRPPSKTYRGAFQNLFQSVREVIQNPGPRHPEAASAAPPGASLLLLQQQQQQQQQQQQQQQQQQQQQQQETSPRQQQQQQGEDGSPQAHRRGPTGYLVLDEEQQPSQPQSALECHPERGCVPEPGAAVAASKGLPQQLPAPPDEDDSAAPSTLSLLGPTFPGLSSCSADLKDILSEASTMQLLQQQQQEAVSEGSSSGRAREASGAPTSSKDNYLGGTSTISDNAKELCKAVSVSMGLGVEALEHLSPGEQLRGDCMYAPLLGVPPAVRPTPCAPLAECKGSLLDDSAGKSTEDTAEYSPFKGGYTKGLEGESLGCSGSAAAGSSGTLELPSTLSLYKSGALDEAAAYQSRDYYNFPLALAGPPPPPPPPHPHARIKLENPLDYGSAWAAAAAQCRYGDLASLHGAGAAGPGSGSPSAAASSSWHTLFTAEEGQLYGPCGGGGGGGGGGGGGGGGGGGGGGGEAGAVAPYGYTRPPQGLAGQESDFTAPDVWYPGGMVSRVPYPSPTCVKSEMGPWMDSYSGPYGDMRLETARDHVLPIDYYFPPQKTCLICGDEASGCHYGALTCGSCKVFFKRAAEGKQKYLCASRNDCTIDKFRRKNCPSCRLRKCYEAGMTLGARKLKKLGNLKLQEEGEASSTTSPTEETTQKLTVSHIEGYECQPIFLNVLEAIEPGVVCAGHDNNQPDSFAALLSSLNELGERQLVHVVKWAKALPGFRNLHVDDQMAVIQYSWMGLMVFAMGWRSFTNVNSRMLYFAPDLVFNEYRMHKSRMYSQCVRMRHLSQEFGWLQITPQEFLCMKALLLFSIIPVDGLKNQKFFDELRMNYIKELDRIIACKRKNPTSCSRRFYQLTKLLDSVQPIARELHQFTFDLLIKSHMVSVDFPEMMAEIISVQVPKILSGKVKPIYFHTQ
Nature of the test: Binding affinity to androgen receptor.

By EC50 is commonly meant the midpoint of the concentration-response curve. The IC50 is the concentration at which inhibition is half-maximal. Low readings indicate inhibition by little substance, high ones a need for much substance.

Where only a bound is given, the exact number is not on record here.

On to `CCN(C[C@](O)(CNC(=O)c1cnn(-c2ccc(F)cc2)c1N)C(F)(F)F)C(=O)c1c(Cl)cccc1Cl`, for which the EC50 on Glucocorticoid receptor [1] is 2 nM; in test [2], above 10000 nM; on Progesterone receptor it was above 10000 nM; at Androgen receptor it was above 10000 nM. This molecule showed an IC50 on Glucocorticoid receptor [3] of 3.16 nM.
